ChEMBL document CHEMBL3886280, “Nicotinic receptor compounds” (2015)

Biological target: Neuronal acetylcholine receptor subunit alpha-7 (Rattus norvegicus, UniProt Q05941)
Assay: Inhibition Assay: Compounds ([…]) were also evaluated for inhibition of binding to a7 nAChR using [125I]iodoMLA as previously reported in Carroll et al. The binding assays were conducted and the Ki values calculated as described in Carroll, F. I. et al., "Synthesis, nicotinic acetylcholine receptor binding, and antinociceptive properties of 2-exo-2-(2',3'-disubstituted 5'-pyridinyl)-7- …

Chain of Neuronal acetylcholine receptor subunit alpha-7 (Q05941 whole entry): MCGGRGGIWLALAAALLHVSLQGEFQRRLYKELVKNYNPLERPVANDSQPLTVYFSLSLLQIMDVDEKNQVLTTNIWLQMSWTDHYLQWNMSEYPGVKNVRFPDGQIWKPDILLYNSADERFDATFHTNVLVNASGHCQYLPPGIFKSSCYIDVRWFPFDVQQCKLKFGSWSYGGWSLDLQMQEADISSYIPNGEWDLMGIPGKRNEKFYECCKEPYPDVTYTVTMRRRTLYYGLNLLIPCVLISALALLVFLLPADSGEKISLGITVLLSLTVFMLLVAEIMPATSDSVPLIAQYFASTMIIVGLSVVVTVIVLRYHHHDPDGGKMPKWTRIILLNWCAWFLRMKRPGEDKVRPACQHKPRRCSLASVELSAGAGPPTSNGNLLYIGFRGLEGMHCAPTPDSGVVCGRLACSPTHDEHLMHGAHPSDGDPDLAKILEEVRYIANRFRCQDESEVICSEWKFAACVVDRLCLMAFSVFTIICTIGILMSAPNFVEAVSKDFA

| Compound | Ki [µM] |
| --- | --- |
| Fc1ncc(C2CC3CCC2N3)cc1-c1ccccc1 (racemic) | > 2 |
| Fc1ncc(C2CC3CCC2N3)cc1-c1cccc(Cl)c1 (configuration not stated) | > 2 |
